From US20090004185A1, “AMINO-SUBSTITUTED QUINAZOLINE DERIVATIVES AS INHIBITORS OF BETA-CATENIN/TCF-4 PATHWAY AND CANCER TREATMENT AGENTS” (WYETH, priority 2007, published 2009) come the findings set out here.

One assay relates to SV40-Luc. Nature of the assay: SV40-Luc control luciferase reporter assay, SV 5A8 cell line (SV40-Luc and SV40-R-Luc), control for non-specific inhibitors. It counts as cell-based, human. To be noted: Homo sapiens, SV5A8, 24 h, SV 5A8 cells derived from SW480; 24 hours of incubation with compound; ratio Firefly/Renilla luciferase. The method, boiled down: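 Cells were plated and, 20-24 hours later, treated with titrated compound (0.316% DMSO final). After 24 hours they were lysed or given Dual-Glo reagent, and firefly then Renilla luminescence was measured. IC50s came from firefly/Renilla ratios as % of control.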

A further assay concerns β-catenin/Tcf-4. Put plainly: cells. It counts as cell-based. To be noted: Homo sapiens, 24 hours of incubation with compound, ratio Firefly/Renilla luciferase. The method, boiled down: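 SW480-derived lines with integrated reporters (Tcf-4-driven firefly luciferase; SV40 firefly as specificity control; SV40 Renilla for cell number/toxicity), treated 24 hours with titrated compounds, final 0.316% DMSO. Dual-luciferase read-out; firefly/Renilla ratio as % of control, duplicate plates, IC50 (nM) from curve fit.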

Where [1] appears, read: SW480, 24 h, Tcf 33.13 cells derived from SW480.
Setting [2] is: Tcf22C11, 24 h, Tcf 22C11 cells derived from SW480.

Some results are limits rather than exact numbers.

For the compound `Cc1ccc2c(NCc3ccc(NC(=O)c4ccc(F)cc4)cc3)nc(NCCN3CCCC3)nc2c1` [Example 237, 4-fluoro-N-{4-[({7-methyl-2-[(2-pyrrolidin-1-ylethyl)amino]quinazolin-4-yl}amino)methyl]phenyl}benzamide], the IC50 – broadly, the point on the concentration scale where inhibition reaches its midpoint – in the assay with SV40-Luc was more than 5010 nM; with β-catenin/Tcf-4 (setting [1]), 829 nM; in the assay on β-catenin/Tcf-4 (setting [2]) it was 888 nM.

As to `Cc1ccc2c(NCc3ccc(NC(=O)c4ccc(Br)cc4)cc3)nc(N(C)C)nc2c1` [Example 239, 4-bromo-N-[4-({[2-(dimethylamino)-7-methylquinazolin-4-yl]amino}methyl)phenyl]benzamide], the IC50 with SV40-Luc was more than 1270 nM; in the assay on β-catenin/Tcf-4 (setting [1]), 193 nM; with β-catenin/Tcf-4 (setting [2]) it was 204 nM.

As for `Cc1ccc2c(NCc3ccc(NC(=O)c4ccc(C)nc4)cc3)nc(N(C)C)nc2c1` [Example 241, N-[4-({[2-(dimethylamino)-7-methylquinazolin-4-yl]amino}methyl)phenyl]-6-methylnicotinamide], the IC50 was more than 23400 nM in the assay with SV40-Luc, 813 nM with β-catenin/Tcf-4 (setting [1]) and 1030 nM with β-catenin/Tcf-4 (setting [2]).

In the case of `Cc1ccc2c(NCc3ccc(NC(=O)c4ccc(Cl)nc4)cc3)nc(N(C)C)nc2c1` [Example 242, 6-chloro-N-[4-({[2-(dimethylamino)-7-methylquinazolin-4-yl]amino}methyl)phenyl]nicotinamide], the IC50 with SV40-Luc is more than 5590 nM; in the assay on β-catenin/Tcf-4 (setting [1]), 336 nM; in the assay with β-catenin/Tcf-4 (setting [2]), 318 nM.

As for `Cc1ccc2c(NCc3ccc(NC(=O)C4CCN(C)CC4)cc3)nc(N(C)C)nc2c1` [Example 243, N-[4-({[2-(dimethylamino)-7-methylquinazolin-4-yl]amino}methyl)phenyl]-1-methylpiperidine-4-carboxamide], the IC50 in the assay on SV40-Luc was more than 23100 nM; in the assay on β-catenin/Tcf-4 (setting [1]) it was 1680 nM; with β-catenin/Tcf-4 (setting [2]) it was 1920 nM.

`Cc1ccc2c(NCc3ccc(NC(=O)C4CCN(CC(C)C)CC4)cc3)nc(N(C)C)nc2c1` [Example 244, N-[4-({[2-(dimethylamino)-7-methylquinazolin-4-yl]amino}methyl)phenyl]-1-isobutylpiperidine-4-carboxamide]: the results for the IC50 in the assay on SV40-Luc, in the assay with β-catenin/Tcf-4 (setting [1]) and in the assay with β-catenin/Tcf-4 (setting [2]) were more than 10500 nM, 962 nM and 650 nM, respectively.

With `Cc1ccc2c(NCc3ccc(NC(=O)C4CCN(C5CCCCC5)CC4)cc3)nc(N(C)C)nc2c1` [Example 245, 1-cyclohexyl-N-[4-({[2-(dimethylamino)-7-methylquinazolin-4-yl]amino}methyl)phenyl]piperidine-4-carboxamide], the IC50 is more than 9990 nM with SV40-Luc, 809 nM in the assay with β-catenin/Tcf-4 (setting [1]) and 754 nM in the assay with β-catenin/Tcf-4 (setting [2]).

`Cc1ccc2c(NCc3ccc(NC(=O)C4CCN(Cc5ccco5)CC4)cc3)nc(N(C)C)nc2c1` [Example 246, N-[4-({[2-(dimethylamino)-7-methylquinazolin-4-yl]amino}methyl)phenyl]-1-(2-furylmethyl)piperidine-4-carboxamide]: the IC50 is more than 20100 nM in the assay with SV40-Luc, 1930 nM in the assay on β-catenin/Tcf-4 (setting [1]) and 1830 nM in the assay with β-catenin/Tcf-4 (setting [2]).

As for `Cc1ccc(CN2CCC(C(=O)Nc3ccc(CNc4nc(N(C)C)nc5cc(C)ccc45)cc3)CC2)cc1` [Example 247, N-[4-({[2-(dimethylamino)-7-methylquinazolin-4-yl]amino}methyl)phenyl]-1-(4-methylbenzyl)piperidine-4-carboxamide], the half-maximal inhibitory concentration (IC50) in the assay on SV40-Luc was more than 4200 nM; in the assay on β-catenin/Tcf-4 (setting [1]) it was 467 nM; in the assay on β-catenin/Tcf-4 (setting [2]), 539 nM.

Consider `Cc1ccc2c(NCc3ccc(NC(=O)C4CCN(Cc5ncc[nH]5)CC4)cc3)nc(N(C)C)nc2c1` [Example 248, N-[4-({[2-(dimethylamino)-7-methylquinazolin-4-yl]amino}methyl)phenyl]-1-(1H-imidazol-2-ylmethyl)piperidine-4-carboxamide], for which the IC50 in the assay on SV40-Luc, in the assay on β-catenin/Tcf-4 (setting [1]) and with β-catenin/Tcf-4 (setting [2]) was more than 20100 nM throughout.

With `CCCCN1CCC(C(=O)Nc2ccc(CNc3nc(N(C)C)nc4cc(C)ccc34)cc2)CC1` [Example 249, 1-butyl-N-[4-({[2-(dimethylamino)-7-methylquinazolin-4-yl]amino}methyl)phenyl]piperidine-4-carboxamide], the figures for the IC50 in the assay with SV40-Luc, with β-catenin/Tcf-4 (setting [1]) and in the assay with β-catenin/Tcf-4 (setting [2]) were more than 10500 nM, 1170 nM and 1480 nM, respectively.

Regarding `COc1ccc(CN2CCC(C(=O)Nc3ccc(CNc4nc(N(C)C)nc5cc(C)ccc45)cc3)CC2)cc1` [Example 250, N-[4-({[2-(dimethylamino)-7-methylquinazolin-4-yl]amino}methyl)phenyl]-1-(4-methoxybenzyl)piperidine-4-carboxamide], the figures for the IC50 in the assay with SV40-Luc, in the assay on β-catenin/Tcf-4 (setting [1]) and in the assay with β-catenin/Tcf-4 (setting [2]) were more than 9280 nM, 213 nM and 373 nM, respectively.

On to `Cc1ccc2c(NCc3ccc(NC(=O)C4CCN(Cc5ccc(F)cc5)CC4)cc3)nc(N(C)C)nc2c1` [Example 251, N-[4-({[2-(dimethylamino)-7-methylquinazolin-4-yl]amino}methyl)phenyl]-1-(4-fluorobenzyl)piperidine-4-carboxamide], for which the 50% inhibitory concentration (IC50) in the assay with SV40-Luc is more than 8340 nM; with β-catenin/Tcf-4 (setting [1]), 215 nM; with β-catenin/Tcf-4 (setting [2]), 262 nM.

For `Cc1ccc2c(NCc3ccc(NC(=O)C4CCN(Cc5ccccc5F)CC4)cc3)nc(N(C)C)nc2c1` [Example 252, N-[4-({[2-(dimethylamino)-7-methylquinazolin-4-yl]amino}methyl)phenyl]-1-(2-fluorobenzyl)piperidine-4-carboxamide], the IC50 with SV40-Luc is more than 8340 nM; with β-catenin/Tcf-4 (setting [1]), 332 nM; in the assay on β-catenin/Tcf-4 (setting [2]), 568 nM.

In the case of `Cc1ccc2c(NCc3ccc(NC(=O)C4CCN(Cc5ccc(Cl)cc5)CC4)cc3)nc(N(C)C)nc2c1` [Example 253, 1-(4-chlorobenzyl)-N-[4-({[2-(dimethylamino)-7-methylquinazolin-4-yl]amino}methyl)phenyl]piperidine-4-carboxamide], the results for the IC50 with SV40-Luc, in the assay with β-catenin/Tcf-4 (setting [1]) and in the assay with β-catenin/Tcf-4 (setting [2]) were more than 4060 nM, 255 nM and 390 nM, respectively.

As for `Cc1ccc2c(NCc3ccc(NC(=O)C4CCN(Cc5ccc(F)cc5F)CC4)cc3)nc(N(C)C)nc2c1` [Example 254, 1-(2,4-difluorobenzyl)-N-[4-({[2-(dimethylamino)-7-methylquinazolin-4-yl]amino}methyl)phenyl]piperidine-4-carboxamide], the IC50 is more than 4590 nM with SV40-Luc, 85 nM with β-catenin/Tcf-4 (setting [1]) and 168 nM in the assay on β-catenin/Tcf-4 (setting [2]).

For `Cc1ccc2c(NCc3ccc(NC(=O)C4CCN(Cc5ccncc5)CC4)cc3)nc(N(C)C)nc2c1` [Example 257, N-[4-({[2-(dimethylamino)-7-methylquinazolin-4-yl]amino}methyl)phenyl]-1-(pyridin-4-ylmethyl)piperidine-4-carboxamide], the results for the IC50 with SV40-Luc, in the assay with β-catenin/Tcf-4 (setting [1]) and in the assay with β-catenin/Tcf-4 (setting [2]) were more than 8080 nM, 906 nM and 1190 nM, respectively.

Consider `Cc1ccc2c(NCc3ccc(NC(=O)C4CCN(Cc5ccc(F)cc5Cl)CC4)cc3)nc(N(C)C)nc2c1` [Example 258, 1-(2-chloro-4-fluorobenzyl)-N-[4-({[2-(dimethylamino)-7-methylquinazolin-4-yl]amino}methyl)phenyl]piperidine-4-carboxamide], for which the IC50 was more than 7890 nM in the assay on SV40-Luc, 215 nM in the assay on β-catenin/Tcf-4 (setting [1]) and 521 nM in the assay on β-catenin/Tcf-4 (setting [2]).

As for `Cc1ccc2c(NCc3ccc(NC(=O)C4CCN(Cc5ccc(Cl)nc5)CC4)cc3)nc(N(C)C)nc2c1` [Example 259, 1-[(6-chloropyridin-3-yl)methyl]-N-[4-({[2-(dimethylamino)-7-methylquinazolin-4-yl]amino}methyl)phenyl]piperidine-4-carboxamide], the IC50 with SV40-Luc was more than 8100 nM; with β-catenin/Tcf-4 (setting [1]), 415 nM; in the assay with β-catenin/Tcf-4 (setting [2]) it was 573 nM.

Consider `Cc1ccc2c(NCc3ccc(NC(=O)C4CCN(Cc5c(F)cc(F)cc5F)CC4)cc3)nc(N(C)C)nc2c1` [Example 260, N-[4-({[2-(dimethylamino)-7-methylquinazolin-4-yl]amino}methyl)phenyl]-1-(2,4,6-trifluorobenzyl)piperidine-4-carboxamide], for which the figures for the IC50 in the assay with SV40-Luc, in the assay on β-catenin/Tcf-4 (setting [1]) and in the assay with β-catenin/Tcf-4 (setting [2]) were more than 7870 nM, 203 nM and 215 nM, respectively.

For the compound `Cc1ccc2c(NCc3ccc(NC(=O)C4CCN(Cc5cccc(F)c5)CC4)cc3)nc(N(C)C)nc2c1` [Example 261, N-[4-({[2-(dimethylamino)-7-methylquinazolin-4-yl]amino}methyl)phenyl]-1-(3-fluorobenzyl)piperidine-4-carboxamide], the IC50 in the assay on SV40-Luc was more than 4170 nM; in the assay with β-catenin/Tcf-4 (setting [1]) it was 328 nM; in the assay on β-catenin/Tcf-4 (setting [2]), 347 nM.

`Cc1ccc2c(NCc3ccc(NC(=O)C4CCN(Cc5cc(F)ccc5F)CC4)cc3)nc(N(C)C)nc2c1` [Example 262, 1-(2,5-difluorobenzyl)-N-[4-({[2-(dimethylamino)-7-methylquinazolin-4-yl]amino}methyl)phenyl]piperidine-4-carboxamide]: the IC50 in the assay on SV40-Luc was more than 4590 nM; in the assay with β-catenin/Tcf-4 (setting [1]) it was 184 nM; in the assay on β-catenin/Tcf-4 (setting [2]), 213 nM.

As to `Cc1ccc2c(NCc3ccc(NC(=O)C4CCN(Cc5ccc(Cl)c(F)c5)CC4)cc3)nc(N(C)C)nc2c1` [Example 263, 1-(4-chloro-3-fluorobenzyl)-N-[4-({[2-(dimethylamino)-7-methylquinazolin-4-yl]amino}methyl)phenyl]piperidine-4-carboxamide], the IC50 in the assay with SV40-Luc is more than 1970 nM; with β-catenin/Tcf-4 (setting [1]) it was 410 nM; with β-catenin/Tcf-4 (setting [2]), 422 nM.

For `CNc1nc(NCc2ccc(NC(=O)c3ccc(Br)cc3)cc2)c2cccc(C)c2n1` [Example 265, 4-bromo-N-[4-({[8-methyl-2-(methylamino)quinazolin-4-yl]amino}methyl)phenyl]benzamide], the IC50 in the assay with SV40-Luc is more than 4230 nM; with β-catenin/Tcf-4 (setting [1]) it was 933 nM; in the assay on β-catenin/Tcf-4 (setting [2]) it was 1140 nM.
